From patent US12371428B2 (Exelixis, Inc., priority 2019, dated 2025) come the findings set out here.

Assay [1] deals with Human KDR (residues 790-1356) (Homo sapiens (Human), UniProt P35968). As to the kind of experiment: Human KDR kinase assay, HTRF KinEase (Example B-2). Format: biochemical. Conditions: protocol of Example B-2 (other compounds). In a few lines:
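Human KDR residues 790-1356 (0.1 ng/well) in buffer with 5 mM MgCl2, 1 mM MnCl2, 1 mM DTT, biotinylated peptide substrate, ATP at Km (4.0 μM), 3% DMSO, 10 compound concentrations; 40 min, room temperature. EDTA stop, streptavidin-XL665/Eu-TK antibody HTRF read 665/620 nm; 4-parameter IC50.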

Assay [2] addresses Human MER (residues 528-999) (Homo sapiens (Human), UniProt Q12866). Nature of the assay: Human Mer kinase assay, HTRF KinEase (Example C-2). Format: biochemical. Conditions: protocol of Example C-2 (other compounds). A digest of the protocol: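 IC50 values from 10 concentrations via 4-parameter logistic fit of […], with DMSO as 100% and 1 μM reference compound as 0% activity. Reaction: MER kinase domain 528-999, 1 ng/well, 40 μM ATP (Km), biotin peptide, 5 mM MgCl2, 1 mM DTT, 3% DMSO, room temperature 60 min; HTRF streptavidin-XL665/Eu-antibody detection.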

In assay [3] the target is Human MET (residues 956-1390) (Homo sapiens (Human), UniProt P08581). As to the kind of experiment: Human Met kinase assay, HTRF KinEase (Example D-2). Conditions: protocol of Example D-2 (other compounds); read-out: c-Met IC50. It counts as biochemical. In a few lines:
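IC50 values come from a 4-parameter logistic fit of the […] fluorescence ratio, set between DMSO (100%) and reference compound at 1 μM (0%). Reactions held MET 956-1390 at 0.1 ng/well, ATP at Km, biotinylated peptide, 5 mM MgCl2, 1 mM MnCl2, 1 mM DTT and 3% DMSO, and ran 40 min at room temperature before streptavidin-XL665/Eu-antibody detection.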

Assay [4] addresses KDR (phospho-KDR, VEGF165-stimulated HUVEC cells) (Homo sapiens (Human), UniProt P35968). Nature of the assay: KDR autophosphorylation ELISA in HUVEC cells (Example G). It counts as cell-based. Conditions: cellular activity; KDR autophosphorylation ELISA in HUVEC cells. In a few lines: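 Cells seeded, grown 24 h at 37 °C, starved 24 h serum-free; cpd 8-pt curve, 0.3% DMSO, 1 h; VEGF165 100 ng/mL, 5 min; cold PBS wash, lysis with orthovanadate and protease/phosphatase inhibitors; pKDR ELISA; IC50 by 4-parameter logistic regression.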

Structures are written as SMILES. pIC50: −log10 of the molar value.

Chain of Human MER (residues 528-999) (Q12866 528-999): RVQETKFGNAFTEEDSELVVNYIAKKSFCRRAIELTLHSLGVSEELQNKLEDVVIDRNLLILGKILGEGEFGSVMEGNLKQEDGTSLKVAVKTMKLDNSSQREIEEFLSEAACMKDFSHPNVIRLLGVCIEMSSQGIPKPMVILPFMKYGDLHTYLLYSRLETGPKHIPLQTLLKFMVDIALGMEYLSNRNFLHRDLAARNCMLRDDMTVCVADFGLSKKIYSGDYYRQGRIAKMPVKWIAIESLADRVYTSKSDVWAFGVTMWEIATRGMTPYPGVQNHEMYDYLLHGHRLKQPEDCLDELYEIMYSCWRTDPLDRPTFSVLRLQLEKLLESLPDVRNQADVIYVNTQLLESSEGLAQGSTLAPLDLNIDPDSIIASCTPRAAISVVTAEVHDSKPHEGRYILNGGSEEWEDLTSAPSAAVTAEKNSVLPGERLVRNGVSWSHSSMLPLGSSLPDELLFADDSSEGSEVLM
Chain of Human MET (residues 956-1390) (P08581 956-1390): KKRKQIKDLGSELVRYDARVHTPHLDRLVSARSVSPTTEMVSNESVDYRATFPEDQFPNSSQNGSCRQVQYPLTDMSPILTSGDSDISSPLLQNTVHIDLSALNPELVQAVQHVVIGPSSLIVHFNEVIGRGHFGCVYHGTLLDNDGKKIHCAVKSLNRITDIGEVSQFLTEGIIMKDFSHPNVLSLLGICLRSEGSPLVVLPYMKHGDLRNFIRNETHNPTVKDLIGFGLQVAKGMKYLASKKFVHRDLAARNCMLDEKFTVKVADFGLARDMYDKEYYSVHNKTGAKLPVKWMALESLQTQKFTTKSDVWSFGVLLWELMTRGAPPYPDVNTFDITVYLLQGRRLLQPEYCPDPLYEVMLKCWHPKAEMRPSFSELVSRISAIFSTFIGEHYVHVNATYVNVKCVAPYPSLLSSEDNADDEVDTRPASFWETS
Chain of KDR (phospho-KDR, VEGF165-stimulated HUVEC cells) (P35968 20-1356): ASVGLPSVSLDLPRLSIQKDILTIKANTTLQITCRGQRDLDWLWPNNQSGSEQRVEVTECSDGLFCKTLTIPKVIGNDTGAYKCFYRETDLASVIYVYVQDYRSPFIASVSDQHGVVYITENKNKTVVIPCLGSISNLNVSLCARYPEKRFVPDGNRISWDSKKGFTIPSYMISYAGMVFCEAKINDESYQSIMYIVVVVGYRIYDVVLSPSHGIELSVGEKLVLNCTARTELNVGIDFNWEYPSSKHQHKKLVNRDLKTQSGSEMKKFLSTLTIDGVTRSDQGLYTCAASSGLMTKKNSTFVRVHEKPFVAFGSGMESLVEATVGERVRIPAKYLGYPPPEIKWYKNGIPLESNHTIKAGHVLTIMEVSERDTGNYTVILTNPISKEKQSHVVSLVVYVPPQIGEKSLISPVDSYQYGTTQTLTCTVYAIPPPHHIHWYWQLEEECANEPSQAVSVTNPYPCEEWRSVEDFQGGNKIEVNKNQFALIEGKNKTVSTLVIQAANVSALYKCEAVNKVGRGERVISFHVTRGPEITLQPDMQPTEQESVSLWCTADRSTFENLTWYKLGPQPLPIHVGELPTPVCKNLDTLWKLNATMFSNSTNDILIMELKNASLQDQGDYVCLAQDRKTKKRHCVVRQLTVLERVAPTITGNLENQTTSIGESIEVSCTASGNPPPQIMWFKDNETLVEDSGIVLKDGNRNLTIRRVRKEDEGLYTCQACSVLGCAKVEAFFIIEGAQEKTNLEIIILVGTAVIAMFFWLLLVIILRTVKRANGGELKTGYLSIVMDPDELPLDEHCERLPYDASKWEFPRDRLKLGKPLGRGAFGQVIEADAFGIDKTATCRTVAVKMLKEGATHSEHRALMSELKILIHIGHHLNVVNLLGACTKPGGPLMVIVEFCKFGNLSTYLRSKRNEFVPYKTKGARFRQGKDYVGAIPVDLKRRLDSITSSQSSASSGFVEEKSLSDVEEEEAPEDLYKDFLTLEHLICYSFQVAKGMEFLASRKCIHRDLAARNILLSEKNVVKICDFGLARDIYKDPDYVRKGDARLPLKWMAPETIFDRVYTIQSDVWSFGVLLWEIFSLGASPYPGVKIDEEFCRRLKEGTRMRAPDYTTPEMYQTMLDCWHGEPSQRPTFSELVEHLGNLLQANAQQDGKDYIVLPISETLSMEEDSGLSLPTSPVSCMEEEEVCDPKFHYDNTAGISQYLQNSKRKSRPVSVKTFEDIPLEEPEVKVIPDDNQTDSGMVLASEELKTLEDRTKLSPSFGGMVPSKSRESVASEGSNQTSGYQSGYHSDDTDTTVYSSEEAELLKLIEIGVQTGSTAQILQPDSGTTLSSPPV
Chain of Human KDR (residues 790-1356) (P35968 790-1356): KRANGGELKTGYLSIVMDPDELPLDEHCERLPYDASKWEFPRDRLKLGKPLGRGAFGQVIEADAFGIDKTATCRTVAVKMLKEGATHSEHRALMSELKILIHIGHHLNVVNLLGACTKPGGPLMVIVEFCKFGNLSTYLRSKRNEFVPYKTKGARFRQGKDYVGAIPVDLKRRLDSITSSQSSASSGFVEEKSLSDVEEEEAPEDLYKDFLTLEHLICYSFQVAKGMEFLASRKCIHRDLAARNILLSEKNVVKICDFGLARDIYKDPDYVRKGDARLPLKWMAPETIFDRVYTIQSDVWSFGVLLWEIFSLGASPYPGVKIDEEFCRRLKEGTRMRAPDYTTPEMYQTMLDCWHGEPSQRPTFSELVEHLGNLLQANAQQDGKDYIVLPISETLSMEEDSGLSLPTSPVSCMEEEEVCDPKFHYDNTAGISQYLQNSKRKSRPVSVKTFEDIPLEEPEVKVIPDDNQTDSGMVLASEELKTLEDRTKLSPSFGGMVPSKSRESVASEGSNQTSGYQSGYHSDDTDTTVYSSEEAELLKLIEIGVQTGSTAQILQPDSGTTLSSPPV

Take `COc1cc2nccc(Oc3ccc(NC(=O)c4cnc(C)c(-c5ccc(F)cc5C)c4O)cc3)c2nc1OC(C)C` [Compound 414, 5-(4-fluoro-2-methylphenyl)-4-hydroxy-N-[4-[(7-methoxy-6-propan-2-yloxy-1,5-naphthyridin-4-yl)oxy]phenyl]-6-methylpyridine-3-carboxamide]: the pIC50 in assay [1] was less than 6.52; in assay [2], more than 7.00; in assay [3], more than 7.00; in assay [4], more than 7.00.

Consider `Cc1cc2nccc(Oc3ccc(NC(=O)c4cnc(C)c(-c5ccc(F)cc5)c4O)cc3F)c2nc1F` [Compound 426, N-[3-fluoro-4-[(6-fluoro-7-methyl-1,5-naphthyridin-4-yl)oxy]phenyl]-5-(4-fluorophenyl)-4-hydroxy-6-methylpyridine-3-carboxamide], for which the pIC50 in assay [1] was 6.52 to 7.00; in assay [2], more than 7.00; in assay [3], more than 7.00; in assay [4], more than 7.00.

For `COc1cc2nccc(Oc3ccc(NC(=O)c4cn(C5(C(F)(F)F)CC5)cc(-c5ccc(F)cc5)c4=O)cc3F)c2nc1OC` [Compound 59, N-[4-[(6,7-Dimethoxy-1,5-naphthyridin-4-yl)oxy]-3-fluorophenyl]-5-(4-fluorophenyl)-4-oxo-1-[1-(trifluoromethyl)cyclopropyl]pyridine-3-carboxamide], the pIC50 is 6.52 to 7.00 in assay [1], more than 7.00 in assay [2], more than 7.00 in assay [3] and less than 6.52 in assay [4].

On to `COc1ccc2nccc(Oc3ccc(NC(=O)c4ccc(C)n(-c5ccc(F)cc5C)c4=O)cc3F)c2n1` [Compound 85, N-[3-Fluoro-4-[(6-methoxy-1,5-naphthyridin-4-yl)oxy]phenyl]-1-(4-fluoro-2-methylphenyl)-6-methyl-2-oxopyridine-3-carboxamide], for which the pIC50 in assay [1] is less than 6.52; in assay [2] it was more than 7.00; in assay [3] it was 6.52 to 7.00; in assay [4], more than 7.00.

As to `COc1cc2nccc(Oc3ccc(NC(=O)c4ncnc(-c5ccc(F)cc5)c4O)cc3F)c2nc1OC` [Compound 96, N-[4-[(6,7-Dimethoxy-1,5-naphthyridin-4-yl)oxy]-3-fluorophenyl]-6-(4-fluorophenyl)-5-hydroxypyrimidine-4-carboxamide], the pIC50 in assay [1], in assay [2], in assay [3] and in assay [4] was more than 7.00 each time.

In the case of `COc1cc2nccc(Oc3ccc(NC(=O)c4cn(C)c(Cl)c(-c5ccc(F)cc5)c4=O)cc3F)c2nc1OC` [Compound 412, 6-chloro-N-[4-[(6,7-dimethoxy-1,5-naphthyridin-4-yl)oxy]-3-fluorophenyl]-5-(4-fluorophenyl)-1-methyl-4-oxopyridine-3-carboxamide], the pIC50 in assay [1], in assay [2], in assay [3] and in assay [4] was more than 7.00 each time.

Take `CCn1cc(C(=O)Nc2ccc(Oc3ccnc4cc(O)cnc34)c(F)c2)c(=O)c(-c2ccc(F)cc2)c1C` [Compound 410, 1-ethyl-N-[3-fluoro-4-[(7-hydroxy-1,5-naphthyridin-4-yl)oxy]phenyl]-5-(4-fluorophenyl)-6-methyl-4-oxopyridine-3-carboxamide]: the pIC50 is less than 6.52 in assay [1], more than 7.00 in assay [2], more than 7.00 in assay [3] and less than 6.52 in assay [4].

In the case of `COc1cc2nccc(Oc3ccc(NC(=O)c4cnc(C)c(-c5ccc(F)cc5C)c4O)cc3F)c2nc1OC(C)C` [Compound 416, N-[3-fluoro-4-[(7-methoxy-6-propan-2-yloxy-1,5-naphthyridin-4-yl)oxy]phenyl]-5-(4-fluoro-2-methylphenyl)-4-hydroxy-6-methylpyridine-3-carboxamide], the pIC50 in assay [1] is less than 6.52; in assay [2], more than 7.00; in assay [3] it was more than 7.00; in assay [4] it was more than 7.00.

Consider `Cc1cc(F)ccc1-c1c(C)n(C)cc(C(=O)Nc2ccc(Oc3ccnc4cc(C)c(F)nc34)c(F)c2)c1=O` [Compound 429, N-[3-fluoro-4-[(6-fluoro-7-methyl-1,5-naphthyridin-4-yl)oxy]phenyl]-5-(4-fluoro-2-methylphenyl)-1,6-dimethyl-4-oxopyridine-3-carboxamide], for which the pIC50 is less than 6.52 in assay [1], more than 7.00 in assay [2], more than 7.00 in assay [3] and less than 6.52 in assay [4].

For `Cc1cc(F)ccc1-c1c(C)nc(C)c(C(=O)Nc2ccc(Oc3ccnc4cc(C)c(F)nc34)c(F)c2)c1O` [Compound 428, N-[3-fluoro-4-[(6-fluoro-7-methyl-1,5-naphthyridin-4-yl)oxy]phenyl]-5-(4-fluoro-2-methylphenyl)-4-hydroxy-2,6-dimethylpyridine-3-carboxamide], the pIC50 in assay [1] is 6.52 to 7.00; in assay [2] it was more than 7.00; in assay [3], more than 7.00; in assay [4], more than 7.00.

With `COc1cc2nccc(Oc3ccc(NC(=O)c4c5n(cc(-c6ccc(F)cc6)c4=O)CCC5)cc3F)c2cc1OC` [Compound 409, N-[4-(6,7-dimethoxyquinolin-4-yl)oxy-3-fluorophenyl]-6-(4-fluorophenyl)-7-oxo-2,3-dihydro-1H-indolizine-8-carboxamide], the pIC50 in assay [1], in assay [2], in assay [3] and in assay [4] was more than 7.00 throughout.

Turning to `COc1cc2nccc(Oc3ccc(NC(=O)c4cnc(C)c(-c5ccc(F)cc5C)c4O)cc3F)c2nc1OCCCN1CCOCC1` [Compound 425, N-[3-fluoro-4-[[7-methoxy-6-(3-morpholin-4-ylpropoxy)-1,5-naphthyridin-4-yl]oxy]phenyl]-5-(4-fluoro-2-methylphenyl)-4-hydroxy-6-methylpyridine-3-carboxamide], the pIC50 in assay [1], in assay [2], in assay [3] and in assay [4] was more than 7.00 in each case.

In the case of `COc1cc2nccc(Oc3ccc(NC(=O)c4cn(C(C)(C)C)cc(-c5ccc(F)cc5)c4=O)cc3F)c2nc1OC` [Compound 48, 1-tert-Butyl-N-[4-[(6,7-dimethoxy-1,5-naphthyridin-4-yl)oxy]-3-fluorophenyl]-5-(4-fluorophenyl)-4-oxopyridine-3-carboxamide], the pIC50 is less than 6.52 in assay [1], more than 7.00 in assay [2], more than 7.00 in assay [3] and less than 6.52 in assay [4].

As to `COc1cc2nccc(Oc3ccc(NC(=O)c4cn(-c5cc[nH]n5)cc(-c5ccc(F)cc5)c4=O)cc3F)c2nc1OC` [Compound 61, N-[4-[(6,7-Dimethoxy-1,5-naphthyridin-4-yl)oxy]-3-fluorophenyl]-5-(4-fluorophenyl)-4-oxo-1-(1H-pyrazol-3-yl)pyridine-3-carboxamide], the pIC50 in assay [1] is less than 6.52; in assay [2] it was more than 7.00; in assay [3] it was more than 7.00; in assay [4], less than 6.52.

Regarding `COc1nc2c(Oc3ccc(NC(=O)c4c(C)nc(C)c(-c5ccc(F)cc5)c4O)cc3F)ccnc2cc1O` [Compound 431, N-[3-fluoro-4-[(7-hydroxy-6-methoxy-1,5-naphthyridin-4-yl)oxy]phenyl]-5-(4-fluorophenyl)-4-hydroxy-2,6-dimethylpyridine-3-carboxamide], the negative logarithm of the IC50 (pIC50) in assay [1], in assay [2], in assay [3] and in assay [4] was more than 7.00 in each case.
